The source of these data is patent US20260265256A1 (IMPACT THERAPEUTICS (SHANGHAI), INC., priority 2023, published 2026).

In test [1] the test system is MDA-MB-436 cells. Put plainly: Growth inhibition assay against BRCA mutant human breast cancer MDA-MB-436 cell line (CCK-8, 7 days). The test is classed as cell-based. As to conditions: 168 h, MDA-MB-436, 7 days, read-out: IC50 (nM), proliferation of human breast cancer cells MDA-MB-436. As for the experimental part: The cells were cultured in complete medium (DMEM medium+10% FBS+Insulin+glutathione). When the confluence reached about 80%, cells were digested and gently dispensed from the bottom of the dish with a 1 mL pipette. Cell suspension was collected and centrifuged at 500 rpm for 3 min. The supernatant was discarded, and the cell pellet were re-suspended in complete medium. The cells were seeded into a culture dish at an appropriate proportion, and then cultured in a 5% CO2 incubator at 37° C. The assay was carried out when the cells were in optimum condition and the confluence was reached 80%. Cells in the logarithmic growth phase were taken to centrifugate, and the culture supernatant was removed. The cells were resuspended in refresh complete medium and counted. The resuspended cells were seeded at 3000/well in a 96-well plate and incubated at 37° C., 5% CO2 incubator overnight. […] The solution was mixed by oscillation. 0.10% DMSO was used as the control.
The next day, the 96-well plate inoculated with cells was taken out from the incubator, and the culture supernatant was removed. Then fresh medium of 195 uL/well and 5 μL/well of 40× test compound solution as mentioned above were added into the 96 well plate, respectively. Finally, the plate was incubated for 7 days in a 37° C. 5% CO2 incubator. The medium containing compound was changed on the fourth day. After 7 days, 20 μL of CCK-8 was added to each well and shaken gently, then was cultured for 4 hours. The plate was shaken for 5 min after incubation, the absorbance values of 450 nm or 650 nm wavelengths were recorded respectively (OD=absorbance value of 450 nm−absorbance value of 650 nm) by using the multifunction readout instrument.
Data were analyzed by software GraphPad Prism 6.0. The inhibitory activity of compounds on cell proliferation was plotted using cell survival rate against the compound concentration as coordinates. Cell survival rate %=(ODcompound−ODbackground)/(ODDMSO−ODbackground)×100.
Table 2 summarizes the inhibitory effect data (IC50) of the compounds on the proliferation of human breast cancer cells MDA-MB-436.

Test [2] addresses recombinant poly(ADP-ribose) polymerase 2 (PARP2) (Homo sapiens, UniProt Q9UGN5). Description: PARP2 chemiluminescent assay. Format: biochemical. As to conditions: PARP2 enzyme activity, chemiluminescence, 40 ng enzyme/well. As for the experimental part: The solution of recombinant poly(ADP-ribose) polymerase 1 and 2 (PARP1 and PARP2) (40 ng enzyme/well) and the compounds to be tested were mixed, respectively. The solutions were added to a 96-well plate coated with histone mixture, incubated at room temperature for 1 h, then 50 μL 0.3 ng/mL Streptavidin-HRP was added to each well. The plates were incubated for 30 minutes at room temperature. Finally, the plates were treated with streptavidin-HRP followed by addition of the ELISA ECL substrate to produce chemiluminescence that can be measured using a chemiluminescence reader. Inhibition of the tested compound to PARP1/2 enzyme activity was calculated according to the following formula. [formula] IC50 value is obtained by fitting the s-shaped dose response curve equation by using XL Fit software.

Chain of recombinant poly(ADP-ribose) polymerase 2 (PARP2) (Q9UGN5 whole entry): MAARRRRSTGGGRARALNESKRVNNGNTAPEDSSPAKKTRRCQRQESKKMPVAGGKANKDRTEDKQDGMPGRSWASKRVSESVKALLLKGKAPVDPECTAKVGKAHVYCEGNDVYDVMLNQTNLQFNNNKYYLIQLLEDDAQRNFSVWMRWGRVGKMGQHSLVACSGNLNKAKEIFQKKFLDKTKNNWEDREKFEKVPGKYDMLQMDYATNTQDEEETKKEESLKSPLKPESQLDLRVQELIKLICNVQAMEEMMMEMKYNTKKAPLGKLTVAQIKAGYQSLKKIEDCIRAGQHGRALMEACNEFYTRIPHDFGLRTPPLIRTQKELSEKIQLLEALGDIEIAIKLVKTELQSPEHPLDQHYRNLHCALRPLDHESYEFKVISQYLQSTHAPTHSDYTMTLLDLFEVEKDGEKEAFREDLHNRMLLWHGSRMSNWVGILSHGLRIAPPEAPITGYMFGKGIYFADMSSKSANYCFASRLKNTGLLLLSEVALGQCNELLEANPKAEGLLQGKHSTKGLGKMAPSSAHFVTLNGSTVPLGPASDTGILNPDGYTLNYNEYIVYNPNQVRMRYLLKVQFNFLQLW

For `CNC(=O)c1ccc(-n2cc3c(n2)CN(Cc2ccc4c([nH]c(=O)c5c(C)cnn54)c2F)C3)c(C)n1` [Example 2, 5-(5-((6-fluoro-3-methyl-4-oxo-4,5-dihydropyrazolo[1,5-a]quinoxalin-7-yl)methyl)-5,6-dihydropyrrolo[3,4-c]pyrazol-2(4H)-yl)-N,6-dimethylpicolinamide], in test [1], the IC50 was 57 nM.

For the molecule `CNC(=O)c1ccc(-n2cc3c(n2)CN(Cc2ccc4c([nH]c(=O)c5c(C)cnn54)c2F)C3)c(F)n1` [Example 3, 5-(5-((6-fluoro-3-methyl-4-oxo-4,5-dihydropyrazolo[1,5-a]quinoxalin-7-yl)methyl)-5,6-dihydropyrrolo[3,4-c]pyrazol-2(4H)-yl)-6-fluoro-N-methylpicolinamide], the IC50 in test [1] amounted to 9.71 nM. On to `CNC(=O)c1ccc(-n2cc3c(n2)CN(Cc2ccc4c([nH]c(=O)c5c(C)cnn54)c2F)C3)c(Cl)n1` [Example 4, 5-(5-((6-fluoro-3-methyl-4-oxo-4,5-dihydropyrazolo[1,5-a]quinoxalin-7-yl)methyl)-5,6-dihydropyrrolo[3,4-c]pyrazol-2(4H)-yl)-6-chloro-N-methylpicolinamide], for which the IC50 in test [1] was determined as 91 nM. Same read-out and setting: in the case of `CNC(=O)c1ccc(-n2cc3c(n2)CN(Cc2ccc4c([nH]c(=O)c5c(C)cnn54)c2F)C3)c(O)n1` [Example 5, 5-(5-((6-fluoro-3-methyl-4-oxo-4,5-dihydropyrazolo[1,5-a]quinoxalin-7-yl)methyl)-5,6-dihydropyrrolo[3,4-c]pyrazol-2(4H)-yl)-6-hydroxy-N-methylpicolinamide] it was greater than 100 nM; in that of `CCNC(=O)c1ccc(-n2cc3c(n2)CN(Cc2ccc4c([nH]c(=O)c5c(C)cnn54)c2F)C3)c(F)n1` [Example 7, N-ethyl-6-fluoro-5-(5-((6-fluoro-3-methyl-4-oxo-4,5-dihydropyrazolo[1,5-a]quinoxalin-7-yl)methyl)-5,6-dihydropyrrolo[3,4-c]pyrazol-2(4H)-yl)picolinamide], 27.2 nM.

`CNC(=O)c1ccc(-n2cc3c(n2)CCN(Cc2ccc4c([nH]c(=O)c5c(C)cnn54)c2F)C3)cn1` [Example 10-1, 5-(5-((6-fluoro-3-methyl-4-oxo-4,5-dihydropyrazolo[1,5-a]quinoxalin-7-yl)methyl)-4,5,6,7-tetrahydro-2H-pyrazolo[4,3-c]pyridin-2-yl)-N-methylpicolinamide]: the IC50 was greater than 10000 nM in test [2] and greater than 100 nM in test [1].

In the case of `CNC(=O)c1ccc(-n2ncc3c2CCN(Cc2ccc4c([nH]c(=O)c5c(C)cnn54)c2F)C3)cn1` [Example 10-2, 5-(5-((6-fluoro-3-methyl-4-oxo-4,5-dihydropyrazolo[1,5-a]quinoxalin-7-yl)methyl)-4,5,6,7-tetrahydro-1H-pyrazolo[4,3-c]pyridin-1-yl)-N-methylpicolinamide], the IC50 in test [2] was greater than 10000 nM; in test [1], greater than 100 nM.

In the case of `CNC(=O)c1ccc(-n2cc3c(n2)CN(Cc2ccc4c([nH]c(=O)c5c(F)cnn54)c2F)C3)c(O)n1` [Example 17, 5-(5-((3,6-difluoro-4-oxo-4,5-dihydropyrazolo[1,5-a]quinoxalin-7-yl)methyl)-5,6-dihydropyrrolo[3,4-c]pyrazol-2(4H)-yl)-6-hydroxy-N-methylpicolinamide], the IC50 in test [1] is greater than 100 nM.

In the case of `O=C(NC1CC1)c1ccc(-n2cc3c(n2)CN(Cc2ccc4c([nH]c(=O)c5c(F)cnn54)c2F)C3)cn1` [Example 20, 5-(5-((3,6-difluoro-4-oxo-4,5-dihydropyrazolo[1,5-a]quinoxalin-7-yl)methyl)-5,6-dihydropyrrolo[3,4-c]pyrazol-2(4H)-yl)-N-cyclopropylpicolinamide], the IC50 in test [1] turned out to be 0.65 nM. Consider `O=C(NC1CC1)c1ccc(-n2cc3c(n2)CN(Cc2ccc4c([nH]c(=O)c5c(F)cnn54)c2F)C3)c(F)n1` [Example 21, N-cyclopropyl-5-(5-((3,6-difluoro-4-oxo-4,5-dihydropyrazolo[1,5-a]quinoxalin-7-yl)methyl)-5,6-dihydropyrrolo[3,4-c]pyrazol-2(4H)-yl)-6-fluoropicolinamide], for which the figures for the IC50 in test [2] and in test [1] were greater than 10000 nM and 2.14 nM, respectively. With `CNC(=O)c1ccc(-n2cc3c(n2)CCN(Cc2ccc4c([nH]c(=O)c5c(F)cnn54)c2F)C3)cn1` [Example 22, 5-(5-((3,6-difluoro-4-oxo-4,5-dihydropyrazolo[1,5-a]quinoxalin-7-yl)methyl)-4,5,6,7-tetrahydro-2H-pyrazolo[4,3-c]pyridin-2-yl)-N-methylpicolinamide], the IC50 in test [1] was greater than 100 nM. On to `CNC(=O)c1ccc(-n2cc3c(n2)CCN(Cc2ccc4c([nH]c(=O)c5c(F)cnn54)c2F)C3)c(C)n1` [Example 23, 5-(5-((3,6-difluoro-4-oxo-4,5-dihydropyrazolo[1,5-a]quinoxalin-7-yl)methyl)-4,5,6,7-tetrahydro-2H-pyrazolo[4,3-c]pyridin-2-yl)-N,6-dimethylpicolinamide], for which the IC50 in test [1] is greater than 100 nM. The same measure, in the same setting: in the case of `CNC(=O)c1ccc(-n2cc3c(n2)CCN(Cc2ccc4c([nH]c(=O)c5c(F)cnn54)c2F)C3)c(F)n1` [Example 24, 5-(5-((3,6-difluoro-4-oxo-4,5-dihydropyrazolo[1,5-a]quinoxalin-7-yl)methyl)-4,5,6,7-tetrahydro-2H-pyrazolo[4,3-c]pyridin-2-yl)-6-fluoro-N-methylpicolinamide] it was greater than 100 nM. For the molecule `CNC(=O)c1ccc(-c2nc3c(o2)CN(Cc2ccc4c([nH]c(=O)c5c(C)cnn54)c2F)C3)cn1` [Example 32, 5-(5-((6-fluoro-3-methyl-4-oxo-4,5-dihydropyrazolo[1,5-a]quinoxalin-7-yl)methyl)-5,6-dihydro-4H-pyrrolo[3,4-d]oxazol-2-yl)-N-methylpicolinamide], in test [1], the IC50 was 18.4 nM.

For `CNC(=O)c1ccc(-c2nc3c(s2)CN(Cc2ccc4c([nH]c(=O)c5c(C)cnn54)c2F)C3)cn1` [Example 33, 5-(5-((6-fluoro-3-methyl-4-oxo-4,5-dihydropyrazolo[1,5-a]quinoxalin-7-yl)methyl)-5,6-dihydro-4H-pyrrolo[3,4-d]thiazol-2-yl)-N-methylpicolinamide], the IC50 in test [1] is greater than 100 nM.

Regarding `CNC(=O)c1ccc(-n2nc3c(c2C)CN(Cc2ccc4c([nH]c(=O)c5c(F)cnn54)c2F)C3)cn1` [Example 40, 5-(5-((3,6-difluoro-4-oxo-4,5-dihydropyrazolo[1,5-a]quinoxalin-7-yl)methyl)-3-methyl-5,6-dihydropyrrolo[3,4-c]pyrazol-2(4H)-yl)-N-methylpicolinamide], the IC50 in test [1] is greater than 100 nM. Consider `CNC(=O)c1ccc(-c2nc3c(n2C)CN(Cc2ccc4c([nH]c(=O)c5c(F)cnn54)c2F)C3)cn1` [Example 44, 5-(5-((3,6-difluoro-4-oxo-4,5-dihydropyrazolo[1,5-a]quinoxalin-7-yl)methyl)-1-methyl-1,4,5,6-tetrahydropyrrolo[3,4-d]imidazol-2-yl)-N-methylpicolinamide], for which the IC50 in test [1] is greater than 100 nM.

As to `CNC(=O)c1ccc(-c2cc3c(o2)CN(Cc2ccc4c([nH]c(=O)c5c(F)cnn54)c2F)C3)cn1` [Example 46, 5-(5-((3,6-difluoro-4-oxo-4,5-dihydropyrazolo[1,5-a]quinoxalin-7-yl)methyl)-5,6-dihydro-4H-furo[2,3-c]pyrrol-2-yl)-N-methylpicolinamide], in test [1], the IC50 was 2.16 nM. Take `CNC(=O)c1ccc(-c2cc3c(s2)CN(Cc2ccc4c([nH]c(=O)c5c(F)cnn54)c2F)C3)cn1` [Example 47, 5-(5-((3,6-difluoro-4-oxo-4,5-dihydropyrazolo[1,5-a]quinoxalin-7-yl)methyl)-5,6-dihydro-4H-thieno[2,3-c]pyrrol-2-yl)-N-methylpicolinamide]: in test [1], the IC50 stood at 14.4 nM. On the same count and under the same terms, the value for `CNC(=O)c1ccc(N2CC3CN(Cc4ccc5c([nH]c(=O)c6c(F)cnn65)c4F)CC3C2)c(F)n1` (stereo not drawn) [Example 61, 5-(5-((3,6-difluoro-4-oxo-4,5-dihydropyrazolo[1,5-a]quinoxalin-7-yl)methyl)hexahydropyrrolo[3,4-c]pyrrol-2(1H)-yl)-6-fluoro-N-methylpicolinamide] was greater than 100 nM; that for `CNC(=O)c1ccc(N2CC3CN(Cc4ccc5c([nH]c(=O)c6c(C)cnn65)c4F)CC3C2)c(F)n1` (stereo not drawn) [Example 64, 6-fluoro-5-(5-((6-fluoro-3-methyl-4-oxo-4,5-dihydropyrazolo[1,5-a]quinoxalin-7-yl)methyl)hexahydropyrrolo[3,4-c]pyrrol-2(1H)-yl)-N-methylpicolinamide] was greater than 100 nM.
